Reference: patent publication US9067926B2, “Fluoromethyl-5,6-dihydro-4H-[1,3]OXAZINES” (F. Hoffmann-La Roche AG, priority 2012, dated 2015)

Target: T1, BACE1 (Homo sapiens, UniProt P56817)
T1 construct: endogenous in cells; host or cells: HEK293 APP cells
Assay: Cellular Aβ-lowering assay (Abeta 40 AlphaLISA)
Type: cell-based
Details: HEK293 APP cells, 18-20 hrs incubation, Aβ 40 in culture supernatant; read-out: BACE1 cell act. Aβ40 IC50
Procedure: Cellular Aβ-Lowering Assay:
The Abeta 40 AlphaLISA Assay can be used. The HEK293 APP cells were seeded in 96 well Microtiter plates in cell culture medium (Iscove's, plus 10% (vv) fetal bovine serum, penicillinstreptomycin) to about 80% confluency and the compounds were added at a 3× concentration in 13 volume of culture medium (final DMSO concentration was kept at 1% vv). After 18-20 hrs incubation at 37° C. and 5% CO2 in a humidified incubator, the culture supernatants were harvested for the determination of Aβ 40 concentrations using Perkin-Elmer Human Amyloid beta 1-40 (high specificity) Kit (Cat# AL275C).
Levels of Aβ 40 in the culture supernatants were calculated as percentage of maximum signal (cells treated with 1% DMSO without inhibitor). The IC50 values were calculated using the Excel XLfit software.

T1 sequence (P56817 46-501): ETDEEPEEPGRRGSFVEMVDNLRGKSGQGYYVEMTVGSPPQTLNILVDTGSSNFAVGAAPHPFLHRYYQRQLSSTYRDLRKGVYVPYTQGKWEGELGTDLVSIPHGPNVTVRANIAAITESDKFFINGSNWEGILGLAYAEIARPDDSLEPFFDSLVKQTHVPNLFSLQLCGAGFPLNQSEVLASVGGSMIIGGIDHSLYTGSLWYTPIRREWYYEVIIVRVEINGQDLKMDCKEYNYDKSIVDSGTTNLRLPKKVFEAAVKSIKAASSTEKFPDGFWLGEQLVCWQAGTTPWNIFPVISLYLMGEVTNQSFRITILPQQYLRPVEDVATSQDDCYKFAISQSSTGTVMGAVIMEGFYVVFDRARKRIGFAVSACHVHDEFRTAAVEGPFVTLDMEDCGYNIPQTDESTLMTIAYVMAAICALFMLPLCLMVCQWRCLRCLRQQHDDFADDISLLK

Row | SMILES | IC50 [nM]
1 | NC1=N[C@](CF)(c2cc(NC(=O)c3ccc(Cl)cn3)ccc2F)C[C@@H](C(F)(F)F)O1 [Example 4, N-(3-((4S,6S)-2-amino-4-(fluoromethyl)-6-(trifluoromethyl)-5,6-dihydro-4H-1,3-oxazin-4-yl)-4-fluorophenyl)-5-chloropicolinamide] | 22
2 | C[C@@]1(c2cc(NC(=O)c3cnc(OCC(F)F)cn3)ccc2F)C[C@@H](C(F)(F)F)OC(N)=N1 [Example 6, N-(3-((4S,6S)-2-amino-4-methyl-6-(trifluoromethyl)-5,6-dihydro-4H-1,3-oxazin-4-yl)-4-fluorophenyl)-5-(2,2-difluoroethoxyl)pyrazine-2-carboxamide] | 24
3 | C[C@@]1(c2cc(NC(=O)c3cnc(OCC(F)(F)F)cn3)ccc2F)C[C@@H](C(F)(F)F)OC(N)=N1 [Example 7, N-(3-((4S,6S)-2-amino-4-methyl-6-(trifluoromethyl)-5,6-dihydro-4H-1,3-oxazin-4-yl)-4-fluorophenyl)-5-(2,2,2-trifluoroethoxyl)pyrazine-2-carboxamide] | 15
4 | C[C@@]1(c2cc(NC(=O)c3ccc(Cl)cn3)ccc2F)C[C@H](C(F)(F)F)OC(N)=N1 [Example 9, N-(3-((4S,6R)-2-Amino-4-methyl-6-(trifluoromethyl)-5,6-dihydro-4H-1,3-oxazin-4-yl)-4-fluorophenyl)-5-chloropicolinamide] | 710
5 | C[C@@]1(c2cc(NC(=O)c3ncc(Cl)cc3Cl)ccc2F)C[C@@H](C(F)(F)F)OC(N)=N1 [Example 10, N-(3-((4S,6S)-2-Amino-4-methyl-6-(trifluoromethyl)-5,6-dihydro-4H-1,3-oxazin-4-yl)-4-fluorophenyl)-3,5-chloropicolinamide] | 6
6 | C[C@@]1(c2cc(NC(=O)c3ncc(C#N)cc3Cl)ccc2F)C[C@@H](C(F)(F)F)OC(N)=N1 [Example 13, N-(3-((4S,6S)-2-Amino-4-methyl-6-(trifluoromethyl)-5,6-dihydro-4H-1,3-oxazin-4-yl)-4-fluorophenyl)-3-chloro-5-cyanopicolinamide] | 13

The next compounds have a lower IC50 than those just listed; values first:

Row | IC50 [nM] | SMILES
7 | 5 | COc1cnc(C(=O)Nc2ccc(F)c([C@]3(C)C[C@@H](C(F)(F)F)OC(N)=N3)c2)cn1 [Example 5, N-(3-((4S,6S)-2-amino-4-methyl-6-(trifluoromethyl)-5,6-dihydro-4H-1,3-oxazin-4-yl)-4-fluorophenyl)-5-methoxypyrazine-2-carboxamide]
8 | 3 | Cc1cc(C#N)cnc1C(=O)Nc1ccc(F)c([C@]2(C)C[C@@H](C(F)(F)F)OC(N)=N2)c1 [Example 12, N-(3-((4S,6S)-2-Amino-4-methyl-6-(trifluoromethyl)-5,6-dihydro-4H-1,3-oxazin-4-yl)-4-fluorophenyl)-5-cyano-3-methylpicolinamide]
9 | 2 | COc1ccc(C(=O)Nc2ccc(F)c([C@]3(C)C[C@@H](C(F)(F)F)OC(N)=N3)c2)nc1 [Example 14, N-(3-((4S,6S)-2-Amino-4-methyl-6-(trifluoromethyl)-5,6-dihydro-4H-1,3-oxazin-4-yl)-4-fluorophenyl)-5-methoxypicolinamide]
10 | 2 | C[C@@]1(c2cc(NC(=O)c3ccc(C(F)F)cn3)ccc2F)C[C@@H](C(F)(F)F)OC(N)=N1 [Example 17, N-(3-((4S,6S)-2-Amino-4-methyl-6-(trifluoromethyl)-5,6-dihydro-4H-1,3-oxazin-4-yl)-4-fluorophenyl)-5-(difluoromethyl)picolinamide]
11 | 1 | C[C@@]1(c2cc(NC(=O)c3ccc(OC(F)F)cn3)ccc2F)C[C@@H](C(F)(F)F)OC(N)=N1 [Example 15, N-(3-((4S,6S)-2-Amino-4-methyl-6-(trifluoromethyl)-5,6-dihydro-4H-1,3-oxazin-4-yl)-4-fluorophenyl)-5-(difluoromethoxy)picolinamide]
12 | 1 | C[C@@]1(c2cc(NC(=O)c3ccc(OC(F)(F)F)cn3)ccc2F)C[C@@H](C(F)(F)F)OC(N)=N1 [Example 16, N-(3-((4S,6S)-2-Amino-4-methyl-6-(trifluoromethyl)-5,6-dihydro-4H-1,3-oxazin-4-yl)-4-fluorophenyl)-5-(trifluoromethoxy)picolinamide]
